In patent US20100311748A1, “HETEROCYCLIC AMIDES USEFUL FOR THE TREATMENT OF CANCER AND PSORIASIS” (ASTRAZENECA AB, priority 2007, published 2010):

Test system: Hedgehog pathway
Test: Hedgehog Pathway Cellular Differentiation Assay (alkaline phosphatase production in C3H10T1/2 cells with Shh ligand)
Assay type: cell-based
Conditions: 3 μM compound, Shh ligand conditioned media, 72 h, alkaline phosphatase
Experimental: Hedgehog Pathway Cellular Differentiation Assay The ability of compounds of the invention to inhibit the Hedgehog pathway can be determined by the following cell differentiation assay. C3H10T1/2 cells were plated into 384 well plates at a concentration of 5000 cells/well in DMEM/10% FBS. The following day the media was changed to 20% conditioned media (low serum media DMEM/2% FBS+Shh ligand). Compounds were solubilized in 100% DMSO to a concentration of 10 mM and then serially diluted three fold in 100% DMSO. The highest concentration in the cell plate was 30 μM and the lowest was 3 nM. The compounds were then added to the cells. Cell plates were incubated with the compound for 72 h and then assayed for alkaline phosphatase production using pNp as a substrate. Briefly, after 72 h of incubation, the media was aspirated from the cells and washed with 30 μl of PBS. PBS was aspirated off the cells and 15 μl of 1×RIPA cell lysis buffer is added on to the cells. The cell plates are then incubated at −80° C. for 30 minutes to insure proper cell lysis. The plates were then thawed back to RT. The substrate solution containing pNp at 1 mg/mL in diethanolamine buffer pH 9.8 was then added onto the lysed cells. The plates were incubated at 30° C. for color development and read at an absorbance of 405 nm. The percent inhibition and IC50 value was then calculated from the absorbance data using standard procedures.

Structure (SMILES)	% Inhibition at 3 μM
Cc1ccc(-c2ncc[nH]2)cc1NC(=O)c1ccc2c(c1)OCCN2C [Example 149, N-[5-(1H-imidazol-2-yl)-2-methyl-phenyl]-2-methyl-5-oxa-2-azabicyclo[4.4.0]deca-7,9,11-triene-8-carboxamide]	63.4%

Same assay, conditions: Mus musculus, C3H 10T1/2, 3 μM compound, Shh ligand conditioned media, 72 h, alkaline phosphatase

Structure (SMILES)	inhibition at 3 µM
Cc1ccc(-c2ncc[nH]2)cc1NC(=O)c1ccc(COc2ccccc2C#N)cc1 [Example 133, 4-[(2-cyanophenoxy)methyl]-N-[5-(1H-imidazol-2-yl)-2-methylphenyl]benzamide]	77%
Cc1ccc(-c2nccn2Cc2ncccc2Br)cc1NC(=O)c1ccc(OCc2ncccc2Br)cc1 [Example 121, 4-[(3-bromopyridin-2-yl)methoxy]-N-(5-{1-[(3-bromopyridin-2-yl)methyl]-1H-imidazol-2-yl}-2-methylphenyl)benzamide]	77.8%
Cc1ccc(-c2ncc[nH]2)cc1NC(=O)c1ccc(OCc2cc(N3CCN(CCO)CC3)ccn2)cc1 [Example 90, 4-({4-[4-(2-hydroxyethyl)piperazin-1-yl]pyridin-2-yl}methoxy)-N-[5-(1H-imidazol-2-yl)-2-methylphenyl]benzamide]	61.5%
Cc1ccc(-c2nccn2C)cc1NC(=O)c1ccc(OCc2cc(Cl)ccn2)cc1 [Example 91, 4-[(4-chloropyridin-2-yl)methoxy]-N-[2-methyl-5-(1-methyl-1H-imidazol-2-yl)phenyl]benzamide]	80.4%
Cc1ccc(-c2ncc[nH]2)cc1NC(=O)c1ccc(OCc2cc3c(cc2Cl)OCO3)cc1 [Example 57, 4-[(6-chloro-1,3-benzodioxol-5-yl)methoxy]-N-[5-(1H-imidazol-2-yl)-2-methylphenyl]benzamide]	73.6%
Cc1cc(C)c(-c2nc3ccccc3[nH]2)cc1NC(=O)c1ccc(OCc2ccccn2)cc1 [Example 68, N-[5-(1H-benzimidazol-2-yl)-2,4-dimethylphenyl]-4-(pyridin-2-ylmethoxy)benzamide]	83.3%
Cc1ccc(-c2nc3cc([N+](=O)[O-])ccc3[nH]2)cc1NC(=O)c1ccc(OCc2ccccn2)cc1 [Example 14, N-[2-methyl-5-(5-nitro-1H-benzoimidazol-2-yl)phenyl]-4-(pyridin-2-ylmethoxy)benzamide]	79.2%
Cc1ccc(-c2nccn2C)cc1NC(=O)c1ccc(OCc2ccccc2C#N)cc1 [Example 51, 4-[(2-cyanophenyl)methoxy]-N-[2-methyl-5-(1-methylimidazol-2-yl)phenyl]benzamide]	82.1%
Cc1ccc(-c2ncc[nH]2)cc1NC(=O)c1ccc(OCc2ccc(N3CCOCC3)cn2)cc1 [Example 139, N-(5-(1H-imidazol-2-yl)-2-methylphenyl)-4-((5-morpholinopyridin-2-yl)methoxy)benzamide]	84.1%
Cc1ccc(-c2ncc[nH]2)cc1NC(=O)c1ccc(OCc2ccc(S(C)(=O)=O)cc2)cc1 [Example 60, N-[5-(1H-imidazol-2-yl)-2-methylphenyl]-4-{[4-(methylsulfonyl)benzyl]oxy}benzamide]	79.7%
Cc1ccc(-c2ncc[nH]2)cc1NC(=O)c1ccc(OCc2cccc(N3CCOCC3)n2)cc1 [Example 129, N-[5-(1H-imidazol-2-yl)-2-methylphenyl]-4-[(6-morpholin-4-ylpyridin-2-yl)methoxy]benzamide]	82.8%
Cc1ccc(-c2ncc[nH]2)cc1NC(=O)c1ccc(CCc2ccccn2)cc1 [Example 108, N-[5-(1H-imidazol-2-yl)-2-methylphenyl]-4-(2-pyridin-2-ylethyl)benzamide]	92.4%
Cc1ccc(-c2ccc(N)cn2)cc1NC(=O)c1ccc(OCc2ccccn2)cc1 [Example 6, N-[5-(5-aminopyridin-2-yl)-2-methyl-phenyl]-4-(pyridin-2-ylmethoxy)benzamide]	65.7%
Cc1nnc(-c2ccc(C)c(NC(=O)c3ccc(OCc4ccccn4)cc3)c2)o1 [Example 38, N-(2-methyl-5-(5-methyl-1,3,4-oxadiazol-2-yl)phenyl)-4-(pyridin-2-ylmethoxy)benzamide]	24.2%
Cc1ccc(-c2ncc[nH]2)cc1NC(=O)c1ccc(OCc2ccc(CO)cc2)cc1 [Example 62, 4-{[4-(hydroxymethyl)benzyl]oxy}-N-[5-(1H-imidazol-2-yl)-2-methylphenyl]benzamide]	76.9%
Cc1ccc(-c2ncc[nH]2)cc1NC(=O)c1ccc(OCc2ccccn2)cc1 [Example 29, N-[5-(1H-imidazol-2-yl)-2-methyl-phenyl]-4-(pyridin-2-ylmethoxy)benzamide]	75.3%
Cc1ccc(-c2nnc(C)n2C)cc1NC(=O)c1ccc(OCc2ccccn2)cc1 [Example 39, N-(5-(4,5-dimethyl-4H-1,2,4-triazol-3-yl)-2-methylphenyl)-4-(pyridin-2-ylmethoxy)benzamide]	7.8%
CCOc1ccnc(COc2ccc(C(=O)Nc3cc(-c4nccn4C)ccc3C)cc2)c1 [Example 97, 4-[(4-ethoxypyridin-2-yl)methoxy]-N-[2-methyl-5-(1-methyl-1H-imidazol-2-yl)phenyl]benzamide]	81.9%
Cc1ccc(-c2cccc(N)n2)cc1NC(=O)c1ccc(OCc2ccccn2)cc1 [Example 8, N-[5-(6-aminopyridin-2-yl)-2-methyl-phenyl]-4-(pyridin-2-ylmethoxy)benzamide]	66.5%
Cc1nc(-c2cc(NC(=O)c3ccc(OCc4ccccn4)cc3)c(C)cc2F)c[nH]1 [Example 103, N-[4-fluoro-2-methyl-5-(2-methyl-1H-imidazol-4-yl)phenyl]-4-(pyridin-2-ylmethoxy)benzamide]	85.6%
Cc1ccc(-c2cnn(C)c2)cc1NC(=O)c1ccc(OCc2ccccn2)cc1 [Example 33, N-[2-methyl-5-(1-methylpyrazol-4-yl)phenyl]-4-(pyridin-2-ylmethoxy)benzamide]	54.7%
Cc1ccc(-c2ncc[nH]2)cc1NC(=O)c1ccc(OCc2cc(N(C)C)ccn2)cc1 [Example 127, 4-{[4-(dimethylamino)pyridin-2-yl]methoxy}-N-[5-(1H-imidazol-2-yl)-2-methylphenyl]benzamide]	76.3%
Cc1ccc(-c2ncc[nH]2)cc1NC(=O)c1ccc(Oc2ccccc2)nc1 [Example 145, N-[5-(1H-imidazol-2-yl)-2-methyl-phenyl]-6-phenoxy-pyridine-3-carboxamide]	67.1%
Cc1ccc(-c2ncn(C)c2CO)cc1NC(=O)c1ccc(OCc2ccccn2)cc1 [Example 78, N-{5-[5-(hydroxymethyl)-1-methyl-1H-imidazol-4-yl]-2-methylphenyl}-4-(pyridin-2-ylmethoxy)benzamide]	75.1%
Cc1ccc(-c2cncn2C)cc1NC(=O)c1ccc(OCc2ccccc2C#N)cc1 [Example 52, 4-[(2-cyanophenyl)methoxy]-N-[2-methyl-5-(3-methylimidazol-4-yl)phenyl]benzamide]	79.8%
Cc1cc(C)c(-c2cn(C)cn2)cc1NC(=O)c1ccc(OCc2ccccn2)cn1 [Example 113, N-(2,4-dimethyl-5-(1-methyl-1H-imidazol-4-yl)phenyl)-5-(pyridin-2-ylmethoxy)picolinamide]	84.7%
Cc1ccc(-c2cnc(C)n2C)cc1NC(=O)c1ccc(OCc2ccccn2)cc1 [Example 23, N-[5-(1,2-dimethyl-1H-imidazol-5-yl)-2-methylphenyl]-4-(pyridin-2-ylmethoxy)benzamide]	73.6%
